# Data reported in US12343326B2, “Psychoactive medicines and their use for treating psychiatric and neurological conditions and disorders” (Transcend Therapeutics, Inc., priority 2021, dated 2025).
# How the values were obtained:
# Test in all cases: β-arrestin based GPCR screen (PathHunter / GPCRmax), agonist mode
# Type in all cases: cell-based
# Design in all cases: host or cells: PathHunter cell lines
# [1] = target: 168 GPCRs (Homo sapiens, UniProt P48039); conditions: MTNR1A
# Procedure: (§1) For agonist determination, cells were incubated with sample to induce response. […] Vehicle concentration was 1%.
# [2] = target: 168 GPCRs (Homo sapiens, UniProt P21453)
# Procedure: as §1
# [3] = target: 168 GPCRs (Homo sapiens, UniProt P41146)
# Procedure: as §1
# [4] = target: 168 GPCRs (Homo sapiens, UniProt P21918)
# Procedure: as §1
# [5] = target: 168 GPCRs (Homo sapiens, UniProt P34972)
# Procedure: as §1
# [6] = target: 168 GPCRs (Homo sapiens, UniProt P18825); conditions: ADRA2C, Agonist
# Procedure: as §1
# [7] = target: 168 GPCRs (Homo sapiens, UniProt P41143)
# 168 GPCRs (Homo sapiens, UniProt P41143), sequence (P41143 whole entry): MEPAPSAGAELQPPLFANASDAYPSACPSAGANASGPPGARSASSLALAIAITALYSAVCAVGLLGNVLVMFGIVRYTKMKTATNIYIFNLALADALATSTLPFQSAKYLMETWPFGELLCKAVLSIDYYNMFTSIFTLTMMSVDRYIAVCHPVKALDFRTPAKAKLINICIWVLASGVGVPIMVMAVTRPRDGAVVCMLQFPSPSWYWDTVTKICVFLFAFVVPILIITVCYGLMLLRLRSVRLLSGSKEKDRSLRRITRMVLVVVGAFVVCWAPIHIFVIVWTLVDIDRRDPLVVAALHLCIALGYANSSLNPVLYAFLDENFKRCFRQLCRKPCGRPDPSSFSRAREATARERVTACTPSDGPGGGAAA
# Procedure: as §1
# [8] = target: 168 GPCRs (Homo sapiens, UniProt P22888); conditions: LHCGR
# 168 GPCRs (Homo sapiens, UniProt P22888), sequence (P22888 27-699): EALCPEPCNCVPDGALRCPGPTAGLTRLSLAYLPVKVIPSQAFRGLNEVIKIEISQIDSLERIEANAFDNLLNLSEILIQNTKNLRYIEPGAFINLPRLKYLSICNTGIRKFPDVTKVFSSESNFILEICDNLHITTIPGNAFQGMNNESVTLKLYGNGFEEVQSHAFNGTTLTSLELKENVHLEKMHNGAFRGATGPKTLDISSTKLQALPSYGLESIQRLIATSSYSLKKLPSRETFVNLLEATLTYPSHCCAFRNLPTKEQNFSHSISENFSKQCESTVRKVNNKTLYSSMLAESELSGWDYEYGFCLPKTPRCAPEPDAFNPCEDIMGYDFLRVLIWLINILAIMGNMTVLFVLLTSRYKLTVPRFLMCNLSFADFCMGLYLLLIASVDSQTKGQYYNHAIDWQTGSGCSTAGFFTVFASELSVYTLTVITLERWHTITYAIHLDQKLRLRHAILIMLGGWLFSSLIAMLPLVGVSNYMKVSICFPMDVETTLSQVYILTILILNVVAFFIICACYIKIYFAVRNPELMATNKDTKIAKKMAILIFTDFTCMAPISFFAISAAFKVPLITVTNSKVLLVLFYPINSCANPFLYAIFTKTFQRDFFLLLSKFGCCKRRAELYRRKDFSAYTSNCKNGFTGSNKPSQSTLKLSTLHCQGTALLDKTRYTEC
# Procedure: as §1
# [9] = target: 168 GPCRs (Homo sapiens, UniProt Q8TDV5)
# 168 GPCRs (Homo sapiens, UniProt Q8TDV5), sequence (Q8TDV5 whole entry): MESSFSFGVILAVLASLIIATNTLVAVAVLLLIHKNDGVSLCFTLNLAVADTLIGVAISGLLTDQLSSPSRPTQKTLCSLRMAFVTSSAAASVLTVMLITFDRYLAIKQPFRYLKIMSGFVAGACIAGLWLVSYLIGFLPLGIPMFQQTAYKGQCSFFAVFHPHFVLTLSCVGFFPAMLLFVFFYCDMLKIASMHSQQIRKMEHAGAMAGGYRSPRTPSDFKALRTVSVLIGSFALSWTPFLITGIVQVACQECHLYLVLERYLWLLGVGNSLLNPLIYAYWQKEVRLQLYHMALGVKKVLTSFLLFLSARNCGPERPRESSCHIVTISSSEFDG
# Procedure: as §1
# [10] = target: 168 GPCRs (Homo sapiens, UniProt P35462)
# 168 GPCRs (Homo sapiens, UniProt P35462), sequence (P35462 whole entry): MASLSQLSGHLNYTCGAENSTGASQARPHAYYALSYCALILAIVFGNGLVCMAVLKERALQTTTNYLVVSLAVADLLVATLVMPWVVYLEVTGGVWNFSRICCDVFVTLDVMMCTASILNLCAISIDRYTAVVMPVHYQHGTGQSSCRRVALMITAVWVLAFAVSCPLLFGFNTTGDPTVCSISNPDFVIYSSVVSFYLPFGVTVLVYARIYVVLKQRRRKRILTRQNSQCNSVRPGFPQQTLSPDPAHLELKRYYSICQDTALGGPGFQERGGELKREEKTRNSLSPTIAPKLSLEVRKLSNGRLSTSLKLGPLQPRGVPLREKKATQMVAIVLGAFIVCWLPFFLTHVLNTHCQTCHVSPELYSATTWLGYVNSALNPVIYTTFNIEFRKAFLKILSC
# Procedure: as §1
# [11] = target: 168 GPCRs (Homo sapiens, UniProt Q13324)
# 168 GPCRs (Homo sapiens, UniProt Q13324), sequence (Q13324 whole entry): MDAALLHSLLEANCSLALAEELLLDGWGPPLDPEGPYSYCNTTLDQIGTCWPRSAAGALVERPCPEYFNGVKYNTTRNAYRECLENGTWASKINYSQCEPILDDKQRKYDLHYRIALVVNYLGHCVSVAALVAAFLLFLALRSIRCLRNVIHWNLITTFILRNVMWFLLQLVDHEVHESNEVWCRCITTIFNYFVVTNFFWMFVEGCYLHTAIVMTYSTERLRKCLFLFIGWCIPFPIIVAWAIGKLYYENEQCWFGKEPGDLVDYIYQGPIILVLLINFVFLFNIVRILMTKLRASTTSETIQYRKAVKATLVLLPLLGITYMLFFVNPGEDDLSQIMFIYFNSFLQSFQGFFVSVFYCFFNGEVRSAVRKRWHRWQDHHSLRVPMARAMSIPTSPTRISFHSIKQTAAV
# Procedure: as §1
# [12] = target: 168 GPCRs (Homo sapiens, UniProt P32239); conditions: CCKBR, Agonist
# 168 GPCRs (Homo sapiens, UniProt P32239), sequence (P32239 whole entry): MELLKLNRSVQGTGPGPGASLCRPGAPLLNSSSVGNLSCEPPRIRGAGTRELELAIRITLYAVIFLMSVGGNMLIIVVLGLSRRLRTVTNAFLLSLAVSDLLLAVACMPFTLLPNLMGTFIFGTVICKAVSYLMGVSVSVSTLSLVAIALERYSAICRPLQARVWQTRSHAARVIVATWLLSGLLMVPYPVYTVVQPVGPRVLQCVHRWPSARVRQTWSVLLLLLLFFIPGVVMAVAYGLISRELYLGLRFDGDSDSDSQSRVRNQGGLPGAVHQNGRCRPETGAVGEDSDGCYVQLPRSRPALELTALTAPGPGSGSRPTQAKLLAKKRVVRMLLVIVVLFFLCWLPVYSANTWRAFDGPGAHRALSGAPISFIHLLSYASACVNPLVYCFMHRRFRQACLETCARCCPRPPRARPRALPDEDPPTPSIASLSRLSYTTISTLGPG
# Procedure: as §1
# [13] = target: 168 GPCRs (Homo sapiens, UniProt Q9GZQ6)
# 168 GPCRs (Homo sapiens, UniProt Q9GZQ6), sequence (Q9GZQ6 whole entry): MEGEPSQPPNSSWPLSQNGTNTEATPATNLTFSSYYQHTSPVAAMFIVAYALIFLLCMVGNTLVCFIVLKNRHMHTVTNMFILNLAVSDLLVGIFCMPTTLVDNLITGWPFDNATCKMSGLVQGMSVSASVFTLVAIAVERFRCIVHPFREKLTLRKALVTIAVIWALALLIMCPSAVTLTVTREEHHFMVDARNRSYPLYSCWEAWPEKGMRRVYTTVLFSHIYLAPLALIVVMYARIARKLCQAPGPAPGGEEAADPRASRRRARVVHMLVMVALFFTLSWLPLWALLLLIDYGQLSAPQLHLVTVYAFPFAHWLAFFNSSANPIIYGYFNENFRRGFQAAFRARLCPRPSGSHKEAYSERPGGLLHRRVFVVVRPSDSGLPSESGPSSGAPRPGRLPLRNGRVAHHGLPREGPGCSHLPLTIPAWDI
# Procedure: as §1
# [14] = target: 168 GPCRs (Homo sapiens, UniProt P14416); conditions: DRD2L
# 168 GPCRs (Homo sapiens, UniProt P14416), sequence (P14416 whole entry): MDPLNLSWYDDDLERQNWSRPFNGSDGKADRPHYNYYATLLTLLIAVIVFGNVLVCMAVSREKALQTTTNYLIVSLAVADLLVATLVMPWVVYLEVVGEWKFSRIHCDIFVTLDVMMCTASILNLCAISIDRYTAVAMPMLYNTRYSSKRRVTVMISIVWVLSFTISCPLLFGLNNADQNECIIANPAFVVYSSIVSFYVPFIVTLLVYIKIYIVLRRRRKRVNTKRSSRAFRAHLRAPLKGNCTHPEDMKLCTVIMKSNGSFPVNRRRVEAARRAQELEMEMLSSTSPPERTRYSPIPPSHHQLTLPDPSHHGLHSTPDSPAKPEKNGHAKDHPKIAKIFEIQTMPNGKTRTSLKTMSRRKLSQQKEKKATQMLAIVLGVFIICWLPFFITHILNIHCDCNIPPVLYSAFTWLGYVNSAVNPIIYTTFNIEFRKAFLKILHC
# Procedure: as §1
# [15] = target: 168 GPCRs (Homo sapiens, UniProt O00574)
# Procedure: as §1
# [16] = target: 168 GPCRs (Homo sapiens, UniProt P51679); conditions: CCR4, Agonist
# Procedure: as §1
# [17] = target: 168 GPCRs (Homo sapiens, UniProt P41597); conditions: CCR2, Agonist
# Procedure: as §1
# [18] = target: 168 GPCRs (Homo sapiens, UniProt P28566); conditions: HTR1E
# 168 GPCRs (Homo sapiens, UniProt P28566), sequence (P28566 whole entry): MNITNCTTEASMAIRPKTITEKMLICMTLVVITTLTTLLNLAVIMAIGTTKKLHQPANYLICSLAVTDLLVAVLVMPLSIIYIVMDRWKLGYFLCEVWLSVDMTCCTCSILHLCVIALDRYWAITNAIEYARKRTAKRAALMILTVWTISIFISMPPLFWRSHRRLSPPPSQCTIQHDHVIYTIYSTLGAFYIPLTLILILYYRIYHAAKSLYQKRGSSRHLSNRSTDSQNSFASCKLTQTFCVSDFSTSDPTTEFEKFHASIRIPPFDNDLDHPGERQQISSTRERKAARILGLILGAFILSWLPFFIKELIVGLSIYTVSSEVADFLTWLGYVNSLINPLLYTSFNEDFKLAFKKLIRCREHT
# Procedure: as §1
# [19] = target: 168 GPCRs (Homo sapiens, UniProt Q9HC97)
# 168 GPCRs (Homo sapiens, UniProt Q9HC97), sequence (Q9HC97 whole entry): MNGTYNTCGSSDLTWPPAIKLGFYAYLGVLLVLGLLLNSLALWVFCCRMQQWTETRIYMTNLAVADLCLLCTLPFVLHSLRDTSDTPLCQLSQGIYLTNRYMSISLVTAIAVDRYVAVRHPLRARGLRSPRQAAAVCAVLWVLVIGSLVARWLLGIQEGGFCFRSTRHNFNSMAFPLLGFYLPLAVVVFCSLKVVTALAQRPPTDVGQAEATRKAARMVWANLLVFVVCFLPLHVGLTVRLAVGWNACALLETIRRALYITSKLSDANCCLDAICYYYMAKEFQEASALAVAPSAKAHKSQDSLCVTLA
# Procedure: as §1
# [20] = target: 168 GPCRs (Homo sapiens, UniProt P48145)
# 168 GPCRs (Homo sapiens, UniProt P48145), sequence (P48145 whole entry): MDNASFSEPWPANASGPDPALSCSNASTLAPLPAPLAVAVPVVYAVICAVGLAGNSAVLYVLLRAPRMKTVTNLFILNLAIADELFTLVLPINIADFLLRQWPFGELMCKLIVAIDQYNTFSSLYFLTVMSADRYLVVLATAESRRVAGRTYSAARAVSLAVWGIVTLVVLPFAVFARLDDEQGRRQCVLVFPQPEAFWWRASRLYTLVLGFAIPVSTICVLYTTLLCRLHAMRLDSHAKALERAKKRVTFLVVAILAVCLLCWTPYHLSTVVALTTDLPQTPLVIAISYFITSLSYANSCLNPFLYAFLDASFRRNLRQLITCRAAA
# Procedure: as §1
# [21] = target: 168 GPCRs (Homo sapiens, UniProt P35372)
# Procedure: as §1
# [22] = target: 168 GPCRs (Homo sapiens, UniProt Q99705)
# Procedure: as §1
# [23] = target: 168 GPCRs (Homo sapiens, UniProt Q8NFJ6)
# 168 GPCRs (Homo sapiens, UniProt Q8NFJ6), sequence (Q8NFJ6 whole entry): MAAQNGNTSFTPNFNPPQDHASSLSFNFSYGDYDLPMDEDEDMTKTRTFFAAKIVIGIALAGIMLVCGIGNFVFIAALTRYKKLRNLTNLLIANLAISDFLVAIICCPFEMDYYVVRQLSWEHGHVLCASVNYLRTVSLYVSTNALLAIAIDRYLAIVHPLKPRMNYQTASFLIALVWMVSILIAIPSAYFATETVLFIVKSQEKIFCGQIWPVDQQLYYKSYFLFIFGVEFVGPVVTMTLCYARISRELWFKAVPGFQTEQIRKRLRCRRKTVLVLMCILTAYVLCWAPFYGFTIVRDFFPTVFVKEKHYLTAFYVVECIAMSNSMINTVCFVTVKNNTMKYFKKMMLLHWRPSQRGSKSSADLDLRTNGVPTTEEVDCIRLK
# Procedure: as §1
compound,measurement,setting,value
"CNC(C)C(=O)c1ccc2c(c1)OCO2 (stereo not shown) [methylone, 3,4-methylenedioxy-N-methylcathinone]",activity at 10 µM,"[1]; Agonist mode, 10 uM",-11.7%
same,activity at 1 µM,"[1]; Agonist, 1 uM",-12.3%
same,activity at 10 µM,"[2]; EDG1, Agonist mode, 10 uM",0.4%
same,activity at 1 µM,"[2]; EDG1, Agonist, 1 uM",0.1%
same,activity at 10 µM,"[3]; OPRL1, Agonist mode, 10 uM",-2.3%
same,activity at 1 µM,"[3]; OPRL1, Agonist, 1 uM",-1.6%
same,activity at 10 µM,"[4]; DRD5, Agonist mode, 10 uM",-0.2%
same,activity at 1 µM,"[4]; DRD5, Agonist, 1 uM",-0.1%
same,activity at 10 µM,"[5]; CNR2, Agonist mode, 10 uM",3.2%
same,activity at 1 µM,"[5]; CNR2, Agonist, 1 uM",7%
same,activity at 1 µM,[6]; 1 uM,-2.5%
same,activity at 10 µM,[6]; 10 uM,0.1%
same,activity at 10 µM,"[7]; OPRD1, Agonist mode, 10 uM",-1.5%
same,activity at 1 µM,"[7]; OPRD1, Agonist, 1 uM",-2%
same,activity at 10 µM,"[8]; Agonist mode, 10 uM",0.4%
same,activity at 1 µM,"[8]; Agonist, 1 uM",0.4%
same,activity at 10 µM,"[9]; GPR119, Agonist mode, 10 uM",-2.2%
same,activity at 1 µM,"[9]; GPR119, Agonist, 1 uM",-5.8%
same,activity at 10 µM,"[10]; DRD3, Agonist mode, 10 uM",2.3%
same,activity at 1 µM,"[10]; DRD3, Agonist, 1 uM",2.2%
same,activity at 10 µM,"[11]; CRHR2, Agonist mode, 10 uM",0.9%
same,activity at 1 µM,"[11]; CRHR2, Agonist, 1 uM",0.9%
same,activity at 1 µM,[12]; 1 uM,-1%
same,activity at 10 µM,[12]; 10 uM,1.5%
same,activity at 10 µM,"[13]; NPFFR1, Agonist mode, 10 uM",-5.6%
same,activity at 1 µM,"[13]; NPFFR1, Agonist, 1 uM",-4.6%
same,activity at 10 µM,"[14]; Agonist mode, 10 uM",0.7%
same,activity at 1 µM,"[14]; Agonist, 1 uM",0.1%
same,activity at 10 µM,"[15]; CXCR6, Agonist mode, 10 uM",0.3%
same,activity at 1 µM,"[15]; CXCR6, Agonist, 1 uM",0.3%
same,activity at 1 µM,[16]; 1 uM,-0.5%
same,activity at 10 µM,[16]; 10 uM,1.4%
same,activity at 1 µM,[17]; 1 uM,-0.4%
same,activity at 10 µM,[17]; 10 uM,-0.5%
same,activity at 10 µM,"[18]; Agonist mode, 10 uM",0.2%
same,activity at 1 µM,"[18]; Agonist, 1 uM",-3.5%
same,activity at 10 µM,"[19]; GPR35, Agonist mode, 10 uM",2.5%
same,activity at 1 µM,"[19]; GPR35, Agonist, 1 uM",2.2%
same,activity at 10 µM,"[20]; NPBWR1, Agonist mode, 10 uM",-1.9%
same,activity at 1 µM,"[20]; NPBWR1, Agonist, 1 uM",1.6%
same,activity at 10 µM,"[21]; OPRM1, OPRM1, Agonist mode, 10 uM",0.5%
same,activity at 1 µM,"[21]; OPRM1, OPRM1, Agonist, 1 uM",0.2%
same,activity at 10 µM,"[22]; MCHR1, Agonist mode, 10 uM",3.1%
same,activity at 1 µM,"[22]; MCHR1, Agonist, 1 uM",3.9%
same,activity at 10 µM,"[23]; PROKR2, Agonist mode, 10 uM",-0.6%
same,activity at 1 µM,"[23]; PROKR2, Agonist, 1 uM",-0.6%
